Results on 1 compound are retold here after patent US20260200831A1, “Plant Oil Ceramides, Synthesis Method and Use Thereof” (SHENZHEN DIKEMAN BIOTECHNOLOGY CO., LTD., priority 2022, published 2026).

Assay [1] is described as follows: Cell migration (scratch) assay, skin barrier repair. It is filed as cell-based. As to conditions: sample 100 mg/L. As for the experimental part: Principle: When cells grow to form a confluent monolayer, a scratch tool is used to create a cell-free blank area on the confluent monolayer cells, the cells in the blank area are removed by a mechanical force, and through a period of incubation, the migration of the cells to the cell-free area is observed, and the migration ability of the cells is reflected by measuring the migration distance of the cells.
• 1. Marking the culture plate. Use a marker pen and ruler to draw evenly spaced horizontal lines (approximately 0.5-1 cm apart) on the back of a 6-well plate, ensuring at least 5 lines cross each well. Avoid thick lines. • 2. Cell seeding. Seed approximately 5×10^5 cells per well (the number varies for varied cells, adjusting based on cell growth rate), and the principle of inoculation is to achieve 100% confluence overnight. • 3. Cell scratching. On the following day, use a pipette tip perpendicular to the cell layer to create scratches along the pre-marked lines on the back of the plate (It is best to use the same tip for all wells). • 4. Cell washing. After the scratching was completed, rinse the cells three times with sterile PBS to remove dislodged cells, leaving a clear visible scratch gap, and then replace with fresh serum-free medium. • 5. Cell culturing and observation. […]

Assay [2] is described as follows: DPPH free radical scavenging assay. The protocol:
DPPH is 1,1-diphenyl-2-picrylhydrazyl and can be used in antioxidant experiments.
Samples at corresponding concentrations (50, 100, 200, 400, 800 mg/L) were mixed with […] DPPH and absolute ethanol at a 1:1 volume ratio, respectively. DPPH and absolute ethanol were mixed at a 1:1 volume ratio, reacted at room temperature in the dark for 30 min, and the absorbance was measured at 517 nm. The absorbance of the sample mixed with DPPH is denoted as A1, the absorbance of the sample mixed with absolute ethanol is denoted as A2, and the absorbance of DPPH mixed with absolute ethanol is denoted as A3. The DPPH scavenging rate of the sample is calculated as [1−(A1−A2)/A3]×100%.

Take `CCCCCCCC/C=C\CCCCCCCC(=O)N[C@@H](CO)[C@H](O)[C@H](O)CCCCCCCCCCCCCC` [ceramide 3B, oleic acid ceramide]: the “healing rate after 24 h” value in assay [1] turned out to be 59.32%. Moreover, the “DPPH free radical scavenging rate” value in assay [2] (50 mg/L) is 7.76%; in assay [2] (100 mg/L) it was 12.82%; in assay [2] (200 mg/L) it was 24.10%; in assay [2] (400 mg/L), 29.60%; in assay [2] (800 mg/L), 33.16%.
